This passage reports melting point results from patent US20040224953A1, “Fused bicyclic-substituted amines as histamine-3 receptor ligands” (priority 2003, published 2004).

SMILES strings stand for the structures.

The melting point is the temperature, or range, at which the solid turns liquid. As for `C[C@@H]1CCCN1CCc1nc2cc(-c3ccc(C#N)cc3)ccc2o1` [Example 24E, 4-{2-[2-(2-(R)-methyl-pyrrolidin-1-yl)-ethyl]-benzooxazol-5-yl}-benzonitrile], the melting point is 70 to 72 °C.
